pIC50: −log10 of the molar value.
What follows are molecules tested against PDE9A (Homo sapiens (Human), UniProt O76083) (assay: PDE9A inhibition, fluorescence polarization assay (IMAP-FP screening express kit)). Conditions: 10 μM of the compound.
Assay type: biochemical
Experimental: The inhibitory activity of the representative compounds according to the present invention against phosphodiesterase 9A was tested based on the polarization assay (IMAP-FP screening express kit) provided by MDS (MDS Analytical Technologies, Sunyvale, CA, USA). As a buffer solution, a reaction solution (a reaction solution containing 0.01% Tween 20 provided by MDS was diluted 5 times, then 5 mM DTT is added) and a polarization detection solution (binding solution A and B provided by MDS were mixed at a ratio of 3:1 and IMAP binding reagent 1/600 was added) were prepared. 100 μM of the substrate (Fl-cGMP substrate; MDS) and 3.6 μg/ml of the enzyme PDE9A (ab54113; abcam) were prepared. 3.6 μg/ml PDE9A and 100 μM substrate were diluted to 20 ng/ml (final reaction concentration: 5 ng/ml) and 400 nM (final reaction concentration: 100 nM), respectively. The buffer solution used for all dilution and preparation processes was 1× reaction solution with 1 mM DTT added, and the polarization detection solution was used to induce polarization at the end.
The prepared samples were dispensed on black microplates (Multiwell 384 well plates, #3573, Corning Life Sciences, Lowell, MA, USA) using a 16-channel pipette (multi 16-channel, Finnpipette, Thermo Scientific, Essex, UK). The total reaction volume per well is 20 μl. At this time, 10 μl of 2% DMSO, 5 μl of substrate solution, and 5 μl of reaction solution were used as a negative control, and 10 μl of 2% DMSO, 5 μl of substrate solution, and 5 μl of PDE9A solution were used as a positive control. As the experimental group, 10 μl of the compound prepared in Example, 5 μl of the substrate solution, and 5 μl of the PDE9A solution were used. After pretreatment between the compound and the enzyme was performed for about 10 minutes before the enzyme-substrate reaction, 5 μl of cGMP was added to induce the enzyme reaction. During the reaction, each compound, enzyme, and substrate occupied 50%, 25%, and 25% of the total volume, respectively, and they were prepared at high concentrations of 2, 4, and 4 times, respectively, immediately before addition. After the enzymatic reaction, it was shaken lightly for 1 minute and the enzyme reaction was induced at room temperature for 1 hour. Then, 60 μl of a polarization detection solution prepared in advance was added to induce polarization.
Nanoparticles composed of trivalent metal ions are mixed in the fluorescence detection solution, which combines with phosphoric acid expose by enzymatic reaction to increase the molecular weight and induce polarization. After leaving for 2 hours at room temperature, the polarization (Fluorescence Polarization, FP) value was measured using a multilabel counter (Envision, PerkinElmer, Turku, Finland) (emission wavelength: P-535 nm, S-535 nm, excitation wavelength: 480 nm), and the result was expressed as an IC50 value, which is the concentration of the compound that inhibited PDE9A by 50% in vitro (Table 2).

Sequence of PDE9A (O76083 whole entry): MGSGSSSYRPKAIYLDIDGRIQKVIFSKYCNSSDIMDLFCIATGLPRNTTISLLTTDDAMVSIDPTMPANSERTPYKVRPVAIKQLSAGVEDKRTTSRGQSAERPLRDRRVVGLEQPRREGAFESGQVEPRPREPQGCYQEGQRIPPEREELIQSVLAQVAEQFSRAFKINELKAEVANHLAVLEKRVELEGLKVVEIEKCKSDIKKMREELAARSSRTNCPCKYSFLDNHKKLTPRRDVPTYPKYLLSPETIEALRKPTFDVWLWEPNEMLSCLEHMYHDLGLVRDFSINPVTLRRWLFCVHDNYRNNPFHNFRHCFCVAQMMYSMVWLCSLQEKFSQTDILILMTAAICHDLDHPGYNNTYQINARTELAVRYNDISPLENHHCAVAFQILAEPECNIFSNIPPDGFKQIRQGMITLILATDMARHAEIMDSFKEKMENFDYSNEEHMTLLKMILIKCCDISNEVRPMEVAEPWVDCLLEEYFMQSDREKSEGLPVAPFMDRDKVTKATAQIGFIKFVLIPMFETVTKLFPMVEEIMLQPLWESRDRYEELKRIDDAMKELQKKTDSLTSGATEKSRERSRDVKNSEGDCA

inhibition at 10 µM | Compound
10.3% | O=c1[nH]c(SCc2nc3cc(-c4ccccc4)ccc3o2)nc2c1cnn2-c1ccccc1 [Example 25, 1-phenyl-6-(((5-phenylbenzo[d]oxazol-2-yl)methyl)thio)-1,5-dihydro-4H-pyrazolo[3,4-d]pyrimidin-4-one]
27.7% | O=c1[nH]c(SCc2nc3cc(Cl)cc(Cl)c3o2)nc2c1cnn2-c1ccccc1 [Example 32, 6-(((5,7-dichlorobenzo[d]oxazol-2-yl)methyl)thio)-1-phenyl-1,5-dihydro-4H-pyrazolo[3,4-d]pyrimidin-4-one]
83.6% | COc1ccc2nc(CSc3nc4c(cnn4-c4ccccc4)c(=O)[nH]3)oc2c1 [Example 35, 6-(((6-methoxybenzo[d]oxazol-2-yl)methyl)thio)-1-phenyl-1,5-dihydro-4H-pyrazolo[3,4-d]pyrimidin-4-one]

Same assay, conditions: Fl-cGMP substrate 100 nM, PDE9A 5 ng/ml, 1 hour at room temperature

Compound | pIC50
CC(Sc1nc2c(cnn2C2CCOCC2)c(=O)[nH]1)c1nc2ccccc2o1 (centres unmarked) [Example 21] | 8.52
O=c1[nH]c(SCc2nc3c([N+](=O)[O-])cccc3o2)nc2c1cnn2C1CCOCC1 [Example 50, 6-(((4-nitrobenzo[d]oxazol-2-yl)methyl)thio)-1-(tetrahydro-2H-pyran-4-yl)-1,5-dihydro-4H-pyrazolo[3,4-d]pyrimidin-4-one] | 6.89
COc1ccc2oc(CSc3nc4c(cnn4C4CCC(F)(F)CC4)c(=O)[nH]3)nc2c1 [Example 45, 1-(4,4-difluorocyclohexyl)-6-(((5-methoxybenzo[d]oxazol-2-yl)methyl)thio)-1,5-dihydro-4H-pyrazolo[3,4-d]pyrimidin-4-one] | 8.10
Cc1ccc2nc(C(C)Sc3nc4c(cnn4C4CCSCC4)c(=O)[nH]3)oc2c1 (centres unmarked) [Example 24, 6-((1-(6-methylbenzo[d]oxazol-2-yl)ethyl)thio)-1-(tetrahydro-2H-thiopyran-4-yl)-1,5-dihydro-4H-pyrazolo[3,4-d]pyrimidin-4-one] | 8.30
CC(C)(C)c1ccc2oc(CSc3nc4c(cnn4C4CCC(F)(F)CC4)c(=O)[nH]3)nc2c1 [Example 42, 6-(((5-(tert-butyl)benzo[d]oxazol-2-yl)methyl)thio)-1-(4,4-difluorocyclohexyl)-1,5-dihydro-4H-pyrazolo[3,4-d]pyrimidin-4-one] | 6.89
Cc1ccc2nc(C(C)Sc3nc4c(cnn4C4CCOCC4)c(=O)[nH]3)oc2c1 (centres unmarked) [Example 23, 6-((1-(6-methylbenzo[d]oxazol-2-yl)ethyl)thio)-1-(tetrahydro-2H-pyran-4-yl)-1,5-dihydro-4H-pyrazolo[3,4-d]pyrimidin-4-one] | 8.70
Cc1ccc2nc(CSc3nc4c(cnn4C4CCOCC4)c(=O)[nH]3)oc2c1 [Example 14, 6-(((6-methylbenzo[d]oxazol-2-yl)methyl)thio)-1-(tetrahydro-2H-pyran-4-yl)-1,5-dihydro-4H-pyrazolo[3,4-d]pyrimidin-4-one] | 8.40
O=c1[nH]c(SCc2nc3ccc([N+](=O)[O-])cc3o2)nc2c1cnn2C1CCC(F)(F)CC1 [Example 37, 1-(4,4-difluorocyclohexyl)-6-(((6-nitrobenzo[d]oxazol-2-yl)methyl)thio)-1,5-dihydro-4H-pyrazolo[3,4-d]pyrimidin-4-one] | 7.13
Cc1cc(C)c2oc(CSc3nc4c(cnn4C4CCC(F)(F)CC4)c(=O)[nH]3)nc2c1 [Example 44, 1-(4,4-difluorocyclohexyl)-6-(((5,7-dimethylbenzo[d]oxazol-2-yl)methyl)thio)-1,5-dihydro-4H-pyrazolo[3,4-d]pyrimidin-4-one] | 7.82
Cc1cc(C)c2oc(CSc3nc4c(cnn4C4CCOCC4)c(=O)[nH]3)nc2c1 [Example 55, 6-(((5,7-dimethylbenzo[d]oxazol-2-yl)methyl)thio)-1-(tetrahydro-2H-pyran-4-yl)-1,5-dihydro-4H-pyrazolo[3,4-d]pyrimidin-4-one] | 8.00
O=c1[nH]c(SCc2nc3c([N+](=O)[O-])cccc3o2)nc2c1cnn2C1CCC(F)(F)CC1 [Example 39, 1-(4,4-difluorocyclohexyl)-6-(((4-nitrobenzo[d]oxazol-2-yl)methyl)thio)-1,5-dihydro-4H-pyrazolo[3,4-d]pyrimidin-4-one] | 7.11
Cc1cccc2oc(CSc3nc4c(cnn4C4CCOCC4)c(=O)[nH]3)nc12 [Example 52, 6-(((4-methylbenzo[d]oxazol-2-yl)methyl)thio)-1-(tetrahydro-2H-pyran-4-yl)-1,5-dihydro-4H-pyrazolo[3,4-d]pyrimidin-4-one] | 7.77
CC(Sc1nc2c(cnn2C2CCC(F)(F)CC2)c(=O)[nH]1)c1nc2ccccc2o1 (centres unmarked) [Example 20] | 8.22
COc1ccc2nc(CSc3nc4c(cnn4C4CCC(F)(F)CC4)c(=O)[nH]3)oc2c1 [Example 46, 1-(4,4-difluorocyclohexyl)-6-(((6-methoxybenzo[d]oxazol-2-yl)methyl)thio)-1,5-dihydro-4H-pyrazolo[3,4-d]pyrimidin-4-one] | 8.52

Other lines, results leading:

pIC50 | Compound
8.30 | O=c1[nH]c(SCc2nc3ccccc3o2)nc2c1cnn2C1CCC(F)(F)CC1 [Example 8, 6-((benzo[d]oxazol-2-ylmethyl)thio)-1-(4,4-difluorocyclohexyl)-1,5-dihydro-4H-pyrazolo[3,4-d]pyrimidin-4-one]
7.09 | Cc1ccc2oc(CSc3nc4c(cnn4-c4ccccc4)c(=O)[nH]3)nc2c1 [Example 3, 6-(((5-methylbenzo[d]oxazol-2-yl)methyl)thio)-1-phenyl-1,5-dihydro-4H-pyrazolo[3,4-d]pyrimidin-4-one]
6.92 | COc1ccc2oc(CSc3nc4c(cnn4-c4ccccc4)c(=O)[nH]3)nc2c1 [Example 34, 6-(((5-methoxybenzo[d]oxazol-2-yl)methyl)thio)-1-phenyl-1,5-dihydro-4H-pyrazolo[3,4-d]pyrimidin-4-one]
8.22 | CC(C)n1ncc2c(=O)[nH]c(SCc3nc4ccccc4o3)nc21 [Example 11, 6-((benzo[d]oxazol-2-ylmethyl)thio)-1-isopropyl-1,5-dihydro-4H-pyrazolo[3,4-d]pyrimidin-4-one]
8.00 | Cc1ccc2nc(CSc3nc4c(cnn4C4CCSCC4)c(=O)[nH]3)oc2c1 [Example 15, 6-(((6-methylbenzo[d]oxazol-2-yl)methyl)thio)-1-(tetrahydro-2H-thiopyran-4-yl)-1,5-dihydro-4H-pyrazolo[3,4-d]pyrimidin-4-one]
4.47 | O=c1[nH]c(SCc2nc3cc(C(F)(F)F)ccc3o2)nc2c1cnn2-c1ccccc1 [Example 36, 1-phenyl-6-(((5-(trifluoromethyl)benzo[d]oxazol-2-yl)methyl)thio)-1,5-dihydro-4H-pyrazolo[3,4-d]pyrimidin-4-one]
6.72 | O=c1[nH]c(SCc2nc3cc(Cl)ccc3o2)nc2c1cnn2-c1ccccc1 [Example 6, 6-(((5-chlorobenzo[d]oxazol-2-yl)methyl)thio)-1-phenyl-1,5-dihydro-4H-pyrazolo[3,4-d]pyrimidin-4-one]
7.08 | O=c1[nH]c(SCc2nc3cc(F)ccc3o2)nc2c1cnn2-c1ccccc1 [Example 4, 6-(((5-fluorobenzo[d]oxazol-2-yl)methyl)thio)-1-phenyl-1,5-dihydro-4H-pyrazolo[3,4-d]pyrimidin-4-one]
6.72 | Cc1ccc2nc(CSc3nc4c(cnn4C4CC4)c(=O)[nH]3)oc2c1 [Example 17, 6-(((6-methylbenzo[d]oxazol-2-yl)methyl)thio)-1-cyclopropyl-1,5-dihydro-4H-pyrazolo[3,4-d]pyrimidin-4-one]
